Measurements reported in patent US4272437A, “Antibacterial agents, and 4-thio azetidinone intermediates” (priority 1979, dated 1981).
Converted amounts (≈) assume the structure as drawn. Structures can show the parent of a compound that is named as a salt. Where two headings read alike, the source gives them in different places.

Tests used:
Ent. cloacae A-9659 = test: MIC, tube dilution, Enterobacter cloacae A9659; format: cell-based; conditions: Enterobacter cloacae, A9659, Enterobacter cloacae A9659; overnight 37° C.; read-out: Minimum Inhibitory Concentration (M.I.C.)
From the text: (§1) Representative compounds of the present invention were subjected to in vitro antibiotic screening against a variety of microorganisms.

K. pneumoniae A-15130 = test: MIC, tube dilution, Klebsiella pneumoniae A15130; format: cell-based; conditions: Klebsiella pneumoniae, A15130, K. pneumoniae A15130; overnight 37° C.; read-out: Minimum Inhibitory Concentration (M.I.C.)
From the text: as §1

Pr. mirabilis A-9900 = test: MIC, tube dilution, Proteus mirabilis A9900; format: cell-based; conditions: Proteus mirabilis, A9900, Proteus mirabilis A9900; overnight 37° C.; read-out: Minimum Inhibitory Concentration (M.I.C.)
From the text: as §1

E. coli A-15119 = test: MIC, tube dilution, Escherichia coli A15119; format: cell-based; conditions: Escherichia coli, A15119, E. coli A15119; overnight 37° C.; read-out: Minimum Inhibitory Concentration (M.I.C.)
From the text: as §1

Str. faecalis A-20688 = test: MIC, tube dilution, Streptococcus faecalis A20688; format: cell-based; conditions: Enterococcus faecalis, A20688, Str. faecalis A20688; overnight 37° C.; read-out: Minimum Inhibitory Concentration (M.I.C.)
From the text: as §1

[1] = tested on: Klebsiella species A20468; test: MIC, tube dilution, Klebsiella species A20468; format: cell-based; conditions: Klebsiella species (K. pneumoniae) A20468; overnight 37° C.; read-out: Minimum Inhibitory Concentration (M.I.C.)
From the text: as §1

Str. pyogenes A-9604 = test: MIC, tube dilution, Streptococcus pyogenes A9604; format: cell-based; conditions: Streptococcus pyogenes, A9604, Str. pyogenes A9604; overnight 37° C., Nutrient Broth; read-out: Minimum Inhibitory Concentration (M.I.C.)
From the text: as §1

Ps. aeruginosa A-9843A = test: MIC, tube dilution, Pseudomonas aeruginosa A9843A; format: cell-based; conditions: Pseudomonas aeruginosa, A9843A, read-out: Minimum Inhibitory Concentration (M.I.C.), Pseudomonas aeruginosa A9843A; overnight 37° C.
From the text: as §1

Proteus rettgeri A21203 = test: MIC, tube dilution, Proteus rettgeri A21203; format: cell-based; conditions: Providencia rettgeri, overnight 37° C., read-out: Minimum Inhibitory Concentration (M.I.C.)
From the text: as §1

E. coli A-20341-1 = test: MIC, tube dilution, Escherichia coli A20341-1; format: cell-based
From the text: as §1

[2] = tested on: Staph. aureus (Meth-Res) A-15097; test: MIC, tube dilution, Staphylococcus aureus A15097 (Meth-Res); format: cell-based; conditions: Staphylococcus aureus, overnight 37° C.
From the text: as §1

Ser. marcescens A-20019 = test: MIC, tube dilution, Serratia marcescens A20019; format: cell-based; conditions: Serratia marcescens, A20019, Serratia marcescens A20019; overnight 37° C.; read-out: Minimum Inhibitory Concentration (M.I.C.)
From the text: as §1

Ent. cloacae A-9656 = test: MIC, tube dilution, Enterobacter cloacae A9656; format: cell-based; conditions: overnight 37° C., read-out: Minimum Inhibitory Concentration (M.I.C.)
From the text: as §1

[3] = tested on: Staph. aureus A-9537 and 50% serum; test: MIC, tube dilution, Staph. aureus A9537 + 50% serum; format: cell-based, Staphylococcus aureus; conditions: Staphylococcus aureus, overnight 37° C., read-out: Minimum Inhibitory Concentration (M.I.C.)
From the text: as §1

Pr. morganii A-15153 = test: MIC, tube dilution, Proteus morganii A15153; format: cell-based; conditions: Morganella morganii, A15153, Proteus morganii A15153; overnight 37° C.; read-out: Minimum Inhibitory Concentration (M.I.C.)
From the text: as §1

Str. pneumoniae A-9585 = test: MIC, tube dilution, Streptococcus pneumoniae A9585; format: cell-based; conditions: Streptococcus pneumoniae, A9585, Str. pneumoniae A9585; overnight 37° C., Nutrient Broth; read-out: Minimum Inhibitory Concentration (M.I.C.)
From the text: as §1

Staph. aureus A-9537 = test: MIC, tube dilution, Staphylococcus aureus A9537; format: cell-based; conditions: Staphylococcus aureus, A9537, Staph. aureus A9537; overnight 37° C., Nutrient Broth; read-out: Minimum Inhibitory Concentration (M.I.C.)
From the text: as §1

Ps. aeruginosa A-21213 = test: MIC, tube dilution, Pseudomonas aeruginosa A21213; format: cell-based; conditions: overnight 37° C., read-out: Minimum Inhibitory Concentration (M.I.C.)
From the text: as §1

Proteus vulgaris A21559 = test: MIC, tube dilution, Proteus vulgaris A21559; format: cell-based; conditions: Proteus vulgaris
From the text: as §1

[4] = tested on: Staph. aureus (Pen-Res) A-9606; test: MIC, tube dilution, Staphylococcus aureus A9606 (Pen-Res); format: cell-based; conditions: Staphylococcus aureus, Staph. aureus A9606 (Pen-Res); overnight 37° C.; read-out: Minimum Inhibitory Concentration (M.I.C.)
From the text: as §1

[5] = A21203, Proteus rettgeri A21203
[6] = Escherichia coli, A203411, E. coli A20341-1; overnight 37° C.; read-out: Minimum Inhibitory Concentration (M.I.C.)
[7] = Staph. aureus A15097 (Meth-Res), read-out: Minimum Inhibitory Concentration (M.I.C.)
[8] = Enterobacter cloacae, A9656, Enterobacter cloacae A9656
[9] = Pseudomonas aeruginosa, A21213, Pseudomonas aeruginosa A21213
[10] = A21559, Proteus vulgaris A21559, overnight 37° C., read-out: Minimum Inhibitory Concentration (M.I.C.)
[11] = Escherichia coli, A203411; E. coli A20341-1; overnight 37° C.; read-out: Minimum Inhibitory Concentration (M.I.C.)
[12] = A21559, read-out: Minimum Inhibitory Concentration (M.I.C.)

| SMILES | MIC (Ent. cloacae A-9659) | MIC (K. pneumoniae A-15130) | MIC (Pr. mirabilis A-9900) | MIC (E. coli A-15119) | MIC (Str. faecalis A-20688) | MIC [1] | MIC (Str. pyogenes A-9604) | MIC (Ps. aeruginosa A-9843A) | MIC (Proteus rettgeri A21203; [5]) | MIC (E. coli A-20341-1; [6]) | MIC [2, 7] | MIC (Ser. marcescens A-20019) | MIC (Ent. cloacae A-9656; [8]) | MIC [3] | MIC (Pr. morganii A-15153) | MIC (Str. pneumoniae A-9585) | MIC (Staph. aureus A-9537) | MIC (Ps. aeruginosa A-21213; [9]) | MIC (Proteus vulgaris A21559; [10]) | MIC [4] | other results |
| --- | --- | --- | --- | --- | --- | --- | --- | --- | --- | --- | --- | --- | --- | --- | --- | --- | --- | --- | --- | --- | --- |
| N=C(Cc1ccccc1)NCC1=C(C(=O)O)N2C(=O)CC2S1 (centres unmarked) [Example 107] | > 63 µg/mL | > 63 µg/mL | 63 µg/mL (≈ 199 µM) | 63 µg/mL (≈ 199 µM) | > 63 µg/mL | > 63 µg/mL | 0.5 µg/mL (≈ 1.58 µM) | 63 µg/mL (≈ 199 µM) | 63 µg/mL (≈ 199 µM) | > 63 µg/mL | > 63 µg/mL | 63 µg/mL (≈ 199 µM) | 63 µg/mL (≈ 199 µM) | 16 µg/mL | 63 µg/mL (≈ 199 µM) | 0.5 µg/mL (≈ 1.58 µM) | 0.5 µg/mL (≈ 1.58 µM) | 63 µg/mL (≈ 199 µM) | 63 µg/mL (≈ 199 µM) | 32 µg/mL (≈ 101 µM) | – |
| CC(N)=NCC1=C(C(=O)O)N2C(=O)CC2S1 (centres unmarked) [16 (5)] | 63 µg/mL (≈ 261 µM) | 63 µg/mL (≈ 261 µM) | 8 µg/mL (≈ 33.2 µM) | 16 µg/mL (≈ 66.3 µM) | > 63 µg/mL | > 63 µg/mL | 2 µg/mL (≈ 8.29 µM) | 16 µg/mL (≈ 66.3 µM) | 32 µg/mL (≈ 133 µM) | > 63 µg/mL | 63 µg/mL (≈ 261 µM) | 32 µg/mL (≈ 133 µM) | 63 µg/mL (≈ 261 µM) | 32 µg/mL | 16 µg/mL (≈ 66.3 µM) | 1 µg/mL (≈ 4.14 µM) | 4 µg/mL (≈ 16.6 µM) | 32 µg/mL (≈ 133 µM) | 63 µg/mL (≈ 261 µM) | 32 µg/mL (≈ 133 µM) | – |
| CC(N)C1=C(C(=O)O)N2C(=O)CC2S1 (centres unmarked) [Example 72, 2-(1'-Aminoethyl)-penem-3-carboxylic Acid] | > 125 µg/mL | > 125 µg/mL | 125 µg/mL (≈ 583 µM) | 125 µg/mL (≈ 583 µM) | > 125 µg/mL | > 125 µg/mL | 2 µg/mL (≈ 9.34 µM) | > 125 µg/mL | – | – | 63 µg/mL (≈ 294 µM) | > 125 µg/mL | – | 63 µg/mL | > 125 µg/mL | 1 µg/mL (≈ 4.67 µM) | 4 µg/mL (≈ 18.7 µM) | – | – | 32 µg/mL (≈ 149 µM) | MIC (Proteus rettgeri A21203; Proteus rettgeri A21203): 125 µg/mL (≈ 583 µM); MIC (E. coli A-20341-1; [11]): > 125 µg/mL; MIC (Ent. cloacae A-9656; Enterobacter cloacae A9656): > 125 µg/mL; MIC (Ps. aeruginosa A-21213; Pseudomonas aeruginosa A21213): > 125 µg/mL; MIC (Proteus vulgaris A21559; [12]): 125 µg/mL (≈ 583 µM) |
| CC[C@@H](O)[C@H]1C(=O)N2C(C(=O)O)=C(C)S[C@H]12 (relative stereo) [Example 94, (1'R,5R,6S and 1'S,5S,6R) 6-(1'-Hydroxy-1'-propyl)-2-methylpenem-3carboxylic acid, sodium and potassium salts (isomer B)] | > 125 µg/mL | > 125 µg/mL | > 125 µg/mL | > 125 µg/mL | > 125 µg/mL | > 125 µg/mL | 16 µg/mL | > 125 µg/mL | – | – | – | > 125 µg/mL | – | > 63 µg/mL | > 125 µg/mL | 1 µg/mL | 32 µg/mL | – | – | 32 µg/mL | MIC (Proteus rettgeri A21203; Proteus rettgeri A21203): > 125 µg/mL; MIC (E. coli A-20341-1; [11]): > 125 µg/mL; MIC ([2]; read-out: Minimum Inhibitory Concentration (M.I.C.), Staph. aureus A15097 (Meth-Res)): > 125 µg/mL; MIC (Ent. cloacae A-9656; Enterobacter cloacae A9656): > 125 µg/mL; MIC (Ps. aeruginosa A-21213; Pseudomonas aeruginosa A21213): > 125 µg/mL; MIC (Proteus vulgaris A21559; [12]): > 125 µg/mL |
